Measurements as given in PubChem BioAssay (NCI).
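How tested: cells in 96-well plates exposed to compound for 48 hours at five concentrations. The concentration for 50% growth inhibition is given as GI50. TGI: concentration producing complete growth inhibition.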

How the values were obtained:
Test in all cases: NCI tumour cell line growth inhibition, 48 h
A498 renal = test system: A498 renal
A549 NSCLC = test system: A549 NSCLC
CAKI-1 renal = test system: CAKI-1 renal
CCRF-CEM leukemia = test system: CCRF-CEM leukemia
COLO 205 colon = test system: COLO 205 colon
DLD-1 colon = test system: DLD-1 colon
DMS 114 small cell lung = test system: DMS 114 small cell lung
DMS 273 small cell lung = test system: DMS 273 small cell lung
EKVX NSCLC = test system: EKVX NSCLC
HCC-2998 colon = test system: HCC-2998 colon
HCT-116 colon = test system: HCT-116 colon
HCT-15 colon = test system: HCT-15 colon
HL-60(TB) leukemia = test system: HL-60(TB) leukemia
HOP-18 NSCLC = test system: HOP-18 NSCLC
HOP-62 NSCLC = test system: HOP-62 NSCLC
HOP-92 NSCLC = test system: HOP-92 NSCLC
HT29 colon = test system: HT29 colon
IGROV1 ovarian = test system: IGROV1 ovarian
K-562 leukemia = test system: K-562 leukemia
KM12 colon = test system: KM12 colon
KM20L2 colon = test system: KM20L2 colon
LOX IMVI melanoma = test system: LOX IMVI melanoma
M19-MEL melanoma = test system: M19-MEL melanoma
MALME-3M melanoma = test system: MALME-3M melanoma
MCF7 breast = test system: MCF7 breast
MOLT-4 leukemia = test system: MOLT-4 leukemia
NCI-H226 lung = test system: NCI-H226 lung
NCI-H23 lung = test system: NCI-H23 lung
NCI-H460 lung = test system: NCI-H460 lung
NCI-H522 lung = test system: NCI-H522 lung
NCI/ADR-RES ovarian = test system: NCI/ADR-RES ovarian
OVCAR-3 ovarian = test system: OVCAR-3 ovarian
OVCAR-4 ovarian = test system: OVCAR-4 ovarian
OVCAR-5 ovarian = test system: OVCAR-5 ovarian
OVCAR-8 ovarian = test system: OVCAR-8 ovarian
P388 leukemia = test system: P388 leukemia
P388/ADR leukemia = test system: P388/ADR leukemia
RPMI-8226 leukemia = test system: RPMI-8226 leukemia
RXF 393 renal = test system: RXF 393 renal
SF-268 CNS = test system: SF-268 CNS
SF-295 CNS = test system: SF-295 CNS
SF-539 CNS = test system: SF-539 CNS
SK-MEL-2 melanoma = test system: SK-MEL-2 melanoma
SK-MEL-28 melanoma = test system: SK-MEL-28 melanoma
SK-MEL-5 melanoma = test system: SK-MEL-5 melanoma
SK-OV-3 ovarian = test system: SK-OV-3 ovarian
SN12C renal = test system: SN12C renal
SN12K1 renal = test system: SN12K1 renal
SNB-19 CNS = test system: SNB-19 CNS
SNB-75 CNS = test system: SNB-75 CNS
SNB-78 CNS = test system: SNB-78 CNS
SW-620 colon = test system: SW-620 colon
U251 CNS = test system: U251 CNS
UACC-257 melanoma = test system: UACC-257 melanoma
UACC-62 melanoma = test system: UACC-62 melanoma
UO-31 renal = test system: UO-31 renal

For `Cc1ncc(CO)c(C=NCCCCCCN=Cc2c(CO)cnc(C)c2[O-])c1[O-].[Cu+2]`, the TGI (A498 renal) was > 100 µM, the TGI (A549 NSCLC) was > 100 µM and the TGI (CAKI-1 renal) was > 100 µM. The TGI (CCRF-CEM leukemia) was > 31.6 µM, the TGI (COLO 205 colon) was > 100 µM and the GI50 (DLD-1 colon) was > 82.9 µM. For the same compound, the TGI (DLD-1 colon) was > 100 µM, the GI50 (DMS 114 small cell lung) was > 47.7 µM and the TGI (DMS 114 small cell lung) was > 77.6 µM. The GI50 (DMS 273 small cell lung) was > 66.9 µM, the TGI (DMS 273 small cell lung) was > 100 µM and the TGI (EKVX NSCLC) was > 100 µM. The TGI (HCC-2998 colon) was > 100 µM, the TGI (HCT-116 colon) was > 100 µM and the TGI (HCT-15 colon) was > 100 µM. For the same compound, the TGI (HL-60(TB) leukemia) was > 100 µM, the GI50 (HOP-18 NSCLC) was > 100 µM and the TGI (HOP-18 NSCLC) was > 100 µM. For the same compound, the TGI (HOP-62 NSCLC) was > 100 µM, the TGI (HOP-92 NSCLC) was > 87.9 µM and the TGI (HT29 colon) was > 100 µM. The TGI (IGROV1 ovarian) was > 100 µM, the TGI (K-562 leukemia) was > 100 µM and the TGI (KM12 colon) was > 100 µM. For the same compound, the GI50 (KM20L2 colon) was > 83.9 µM, the TGI (KM20L2 colon) was > 100 µM and the TGI (LOX IMVI melanoma) was > 94.3 µM. The GI50 (M19-MEL melanoma) was 28.6 µM, the TGI (M19-MEL melanoma) was > 31.6 µM and the TGI (MALME-3M melanoma) was > 100 µM. For the same compound, the TGI (MCF7 breast) was > 100 µM, the TGI (MOLT-4 leukemia) was > 100 µM and the TGI (NCI-H226 lung) was > 100 µM. For the same compound, the TGI (NCI-H23 lung) was > 100 µM, the TGI (NCI-H460 lung) was > 100 µM and the TGI (NCI-H522 lung) was > 100 µM. The TGI (NCI/ADR-RES ovarian) was > 100 µM, the TGI (OVCAR-3 ovarian) was > 100 µM and the TGI (OVCAR-4 ovarian) was > 100 µM. The TGI (OVCAR-5 ovarian) was > 100 µM, the TGI (OVCAR-8 ovarian) was > 100 µM and the GI50 (P388 leukemia) was 18.9 µM. The TGI (P388 leukemia) was 94.2 µM, the GI50 (P388/ADR leukemia) was 25.7 µM and the TGI (P388/ADR leukemia) was > 100 µM. The TGI (RPMI-8226 leukemia) was > 100 µM, the TGI (RXF 393 renal) was > 100 µM and the TGI (SF-268 CNS) was > 100 µM. The TGI (SF-295 CNS) was > 100 µM, the TGI (SF-539 CNS) was > 100 µM and the TGI (SK-MEL-2 melanoma) was > 100 µM. The TGI (SK-MEL-28 melanoma) was > 100 µM, the TGI (SK-MEL-5 melanoma) was > 79.1 µM and the TGI (SK-OV-3 ovarian) was > 100 µM. For the same compound, the TGI (SN12C renal) was > 100 µM, the GI50 (SN12K1 renal) was > 100 µM and the TGI (SN12K1 renal) was > 100 µM. For the same compound, the TGI (SNB-19 CNS) was > 100 µM, the TGI (SNB-75 CNS) was > 100 µM and the GI50 (SNB-78 CNS) was 41.3 µM. The TGI (SNB-78 CNS) was > 100 µM, the TGI (SW-620 colon) was > 100 µM and the TGI (U251 CNS) was > 70.9 µM. For the same compound, the TGI (UACC-257 melanoma) was > 100 µM, the TGI (UACC-62 melanoma) was > 100 µM and the TGI (UO-31 renal) was > 100 µM.
